This note sets out measurements from US20110009379A1, “INDOLINONE COMPOUND” (ASTELLAS PHARMA INC., priority 2008, published 2011).

Series [1] deals with delay of discharging time induced by loperamide in mice. Kind of series: Loperamide induced constipation model (glass bead discharging time). Format: in vivo. To be noted: Mus musculus; mice (Slc:ddY, male), 0.3 mg/kg loperamide subcutaneously, compound orally; read-out: ED50 (amount which suppresses 50% of the delay of discharging time induced by loperamide). The protocol:
It has been known that loperamide as a μ opioid receptor agonist causes convulsive contraction in intestinal tracts. Thus, a delay in the intestinal transport ability due to loperamide is thought as a constipation IBS model.
Mice (Slc:ddY, five-week old, male) fasted from the previous evening of the experiment. On the day of the experiment, the mice were acclimatized to cages for measurement for 1 hour or more, and 0.3 mg/kg of loperamide was administered subcutaneously. After 30 minutes, a compound to be tested was administered orally, ether anesthesia was applied to the mice immediately thereafter, glass beads having diameter of 3 mm were inserted to 2 cm from anus. The mice were returned to the cages for measurement, and the time from waking to discharging of the glass beads was measured. Furthermore, the compound to be tested was dissolved into 10% DMSO, 10% cremophor, and 80% distillated water.
As a result, it has been recognized that there was a delay in the beads discharging time of the loperamide administration group (vehicle group) in comparison with the loperamide non-administration group (control group).
ED50 values (amount of the compound to be tested which suppresses 50% of the delay of discharging time induced by loperamide) of some of the compounds of the formula (I) are shown in Table 3. In this connection, comparative compound 1 is the same compound as comparative compound 1 in Test Example 4.

A further series has as its system RIN14B cells. As to the kind of experiment: Measurement of 5-HT secretion from RIN14B. It is filed as cell-based. To be noted: 20 minutes at 37° C., relative to 300 μM allyl isothiocyanate = 100%, HBSS only = 0%. The method, then: In order to investigate whether TRPA1 is related to 5-HT release, 5-HT secretion promotion from RIN14B by a compound to be tested was measured.
The RIN14B cells cultivated in a petri dish were scraped using Phosphate buffered saline (PBS) containing 1 mM EDTA, distributed into 24 well plates, and cultivated for 2 days. As a medium, a medium in which 10% fetal bovine serum (ICN), 100 U/mL penicillin, and 100 μg/mL streptomycin was added to RPMI1640 (Invitrogen), was used. The cells were washed once with HBSS (Invitrogen) and added with 0.1% BSA and 10 μM fluoxetine (TOCRIS Co.), followed by dilution with the above HBSS, the prepared compound to be tested was added to RIN14B cells, followed by cultivation at 37° C., under 5% CO2 condition for 20 minutes. After cultivation, supernatant of cells was recovered, followed by freeze preservation. The content of 5-HT in the supernatant was measured by a commercial serotonin immunoassay kit (Beckman). 5-HT release promotion activation value (%) was evaluated as a relative value when the 5-HT release promotion value by 300 μM of allyl isothiocyanate was defined as 100%, and the 5-HT release promotion value by HBSS for dilution only was defined as 0%.

The target of the next series is Cytochrome P450(2D6) (Homo sapiens, UniProt P10635). As to the kind of experiment: Cytochrome P450(2D6) enzyme inhibition test. It is filed as in vitro ADME. To be noted: CYP2D6, fluorescent substrate 1.5 μmol/L, 37° C., 20 minutes. The protocol:
The experiment was performed in accordance with the method of Crespi et al. (Analytical Biochemistry, 248, 188-190, 1997).
As a substrate, 3-[2-(N,N-diethyl-N-methylamino)ethyl]-7-methoxy-4-methyl coumarine (1.5 μmol/L) a compound to be tested (3.1×10^−7 to 2×10^−5 M) and an enzyme (2.5×10^−8 M) were incubated at 37° C. for 20 minutes in total of […] of 100 mM phosphorous buffer (pH=7.4) including 8.2 mM NADP+, 0.41 mM glucose-6-phosphate, 0.41 mM MgCl2 and 0.4 Units/mL glucose-6-phosphate dehydrogenase, using 96 well plates. Then, 0.5 M aqueous 2-amino-2-hydroxymethyl-1,3-propandiol solution containing 80% acetonitrile was added to stop the reaction, fluorescence intensity (excitation wavelength; 390 nm, fluorescent wavelength; 460 nm) was measured with a fluorescent plate reader. An inhibition ratio was calculated with the following formula, and the test compound concentration when the inhibition ratio is 50% (IC50) was obtained.
C1: fluorescence intensity in the presence of the test compound and enzyme at know concentrations, and the substrate
C0: fluorescence intensity in the presence of the enzyme and substrate, without the test compound
B1: fluorescence intensity of blank well

Another series concerns the target T1, human TRPA1 (Homo sapiens, UniProt O75762, K186N/R3C/R58T).
T1 construct: expressed in transfected cells; pcDNA3.1(+) vector)
As to the kind of experiment: Measurement of TRPA1 activation activity (intracellular calcium, FLIPR, HEK293 cells stably expressing human TRPA1). It is filed as cell-based. To be noted: change of intracellular calcium concentration. The method, then:
10 ng of Human brain mRNA (Clontech Co.) was treated with DNase, and then was reverse transcribed using kit for reverse transcription-polymerase chain reaction (RT-PCR) (SUPERSCRIPT First-Strand Synthesis System for RT-PCR; Invitrogen Co.) to synthesize the first strand cDNA. PCR using a hot start method was performed using the first strand cDNA as a template and Taq DNA polymerase (LA Taq DNA polymerase; TAKARA SHUZO). The PCR was performed using oligonucleotides consisting of the nucleotide sequences, represented by sequence number 2 as a sense primer and sequence number 3 as an antisense primer, in which firstly, heat denaturation was performed at 98° C. (1 minute), and then a cycle of 98° C. (15 seconds)/56° C. (30 seconds)/72° C. (5 minutes) was repeated 35 times. As a result, a DNA fragment of about 3.3 kbp was amplified.
The DNA fragment was cloned to pCR-TOPO vector using a cloning kit (TOPO XL PCR Cloning Kit; Invitrogen). The obtained plasmid DNA was digested with restriction enzymes KpnI and HindIII, and then was cloned using plasmid pcDNA 3.1(+)(Invitrogen). In this connection, the plasmid pcDNA 3.1(+) has a promoter sequence derived from cytemegalovirus, and can be used in order to express a protein in animal cells.
The nucleotide sequences of the obtained clones were analyzed using DNA sequencer (ABI3700 DNA Sequencer; Applied Biosystems) by dideoxyterminator method, and the nucleotide sequence represented by sequence number 1 was obtained. Furthermore, when these sequences were translated to amino acid sequences, the amino acid sequence represented by sequence number 1 was obtained.
After constructing the expression vector of the human TRPA1 gene, selection by G418 was performed from the HEK293 cells which temporarily expressed TRPA1 by transfection operation to obtain cells stably expressing TRPA1. The above operation was performed according to known methods (experimental medicine supplementary volume, “Cultivation Cell Experimental Methods for Molecular Biology Study” published by Toshio Kuroki, Namho Hue and Kazuhiro Chida, 1995, Yodosha).
In order to measure the change of the intracellular calcium concentration in the cells stably expressing the human TRPA1, the change of the intracellular calcium concentration when a compound to be tested was added was measured using FLIPR (Molecular Device).
In order to measure the change of the intracellular calcium concentration with FLIPR, the following pretreatment was performed. First of all, assay buffer was prepared which was for adding fluorescent pigment Fluo4-AM (DOJIN) to the cells or washing the cells just before performing FLIPR assay. To a solution (hereinafter, HBSS/HEPES solution) where 20 mL of 1M HEPES (pH 7.4; Invitrogen) was added to 1000 mL of a physiological saline buffer (Hank's Balanced Salt Solution; HBSS) (Invitrogen), was added 10 mL of a solution where 710 mg of probenecid (Sigma) was dissolved into 5 mL of 1M aqueous NaOH solution and 5 mL of HBSS/HEPES solution was further added and mixed, and the assay buffer was thus prepared. Then, 50 μg of Fluo4-AM was dissolved into 22 μL of DMSO (DOJIN), the same amount of 20% pluronic acid (Molecular Probes) was added thereto and mixed, and the mixture was added to the 10.6 mL of the assay buffer where 105 μL of fetal bovine serum was added, to prepare a fluorescent pigment solution. The medium of the cells stably expressing TRPA1 was removed, 100 μL per well of the fluorescent pigment solution was dispensed immediately, followed by cultivation in a CO2 cultivator for 1 hour, and the fluorescent pigment was soaked in the cells. The cells after cultivation were washed using the assay buffer, followed by being set in FLIPR. Furthermore, a test sample, which was added to the cells stably expressing TRPA1, was prepared by using the assay buffer, and at the same time, was set in FLIPR. […]
(A change in cytosolic calcium serves as a functional read-out for many receptors and channels.)

T1 sequence (O75762 whole entry R3C/R58T/K186N): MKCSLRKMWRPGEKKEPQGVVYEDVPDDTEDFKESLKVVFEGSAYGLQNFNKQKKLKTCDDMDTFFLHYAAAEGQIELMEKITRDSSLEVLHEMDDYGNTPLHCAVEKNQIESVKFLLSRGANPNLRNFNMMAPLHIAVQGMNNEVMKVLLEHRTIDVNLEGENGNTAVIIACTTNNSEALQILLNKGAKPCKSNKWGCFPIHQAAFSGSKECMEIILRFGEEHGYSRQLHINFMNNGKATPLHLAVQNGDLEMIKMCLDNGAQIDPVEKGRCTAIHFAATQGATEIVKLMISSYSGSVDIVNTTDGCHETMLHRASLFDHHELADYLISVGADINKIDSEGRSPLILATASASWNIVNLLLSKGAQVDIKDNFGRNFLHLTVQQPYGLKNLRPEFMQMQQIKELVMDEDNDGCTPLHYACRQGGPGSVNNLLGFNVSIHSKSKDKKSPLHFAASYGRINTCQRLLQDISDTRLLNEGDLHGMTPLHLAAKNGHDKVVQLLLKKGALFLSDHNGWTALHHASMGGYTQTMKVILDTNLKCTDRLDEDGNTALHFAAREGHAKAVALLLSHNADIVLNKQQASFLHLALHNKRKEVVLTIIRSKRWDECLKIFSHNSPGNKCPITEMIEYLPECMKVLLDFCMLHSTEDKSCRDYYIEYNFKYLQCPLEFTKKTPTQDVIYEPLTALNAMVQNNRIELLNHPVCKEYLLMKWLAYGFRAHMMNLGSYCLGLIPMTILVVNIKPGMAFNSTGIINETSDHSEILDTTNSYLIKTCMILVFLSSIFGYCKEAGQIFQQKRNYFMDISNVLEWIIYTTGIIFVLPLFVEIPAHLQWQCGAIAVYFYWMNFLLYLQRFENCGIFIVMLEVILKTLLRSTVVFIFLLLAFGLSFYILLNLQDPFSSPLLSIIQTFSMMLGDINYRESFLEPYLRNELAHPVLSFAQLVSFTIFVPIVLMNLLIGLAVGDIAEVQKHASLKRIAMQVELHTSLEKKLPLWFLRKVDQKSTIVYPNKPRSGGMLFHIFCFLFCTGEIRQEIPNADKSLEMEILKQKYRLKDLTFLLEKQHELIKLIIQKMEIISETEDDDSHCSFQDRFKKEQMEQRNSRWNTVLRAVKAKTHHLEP
Sequence of Cytochrome P450(2D6) (P10635 whole entry): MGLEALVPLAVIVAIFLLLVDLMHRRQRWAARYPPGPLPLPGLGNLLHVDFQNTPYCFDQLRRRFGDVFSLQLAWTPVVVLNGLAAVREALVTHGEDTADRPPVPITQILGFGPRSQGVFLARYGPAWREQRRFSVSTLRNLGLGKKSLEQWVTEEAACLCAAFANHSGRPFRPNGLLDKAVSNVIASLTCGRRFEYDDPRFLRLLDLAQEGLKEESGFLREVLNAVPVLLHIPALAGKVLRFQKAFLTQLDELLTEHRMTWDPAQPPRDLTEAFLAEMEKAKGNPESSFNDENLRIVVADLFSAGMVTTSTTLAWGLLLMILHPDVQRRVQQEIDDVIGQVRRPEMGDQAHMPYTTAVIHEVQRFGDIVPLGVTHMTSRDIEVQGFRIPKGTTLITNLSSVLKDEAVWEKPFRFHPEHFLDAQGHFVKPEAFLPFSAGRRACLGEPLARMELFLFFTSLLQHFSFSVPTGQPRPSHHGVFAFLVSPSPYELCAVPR

As for `O=C(O)/C=C1/C(=O)N(CC2CCCC2)c2ccccc21` [Example 26, (2E)-[1-(cyclopentylmethyl)-2-oxo-1,2-dihydro-3H-indol-3-ylidene]acetic acid], the melting point – broadly, the temperature, or range, at which the solid turns liquid – lay within 140 to 142 °C. In addition, in series [1], the 50% effective dose (ED50) (as a rule, the dose at which the effect has come halfway, by size or by number of responders) was determined as 0.51 mg/kg. In the series on RIN14B cells, the “5-HT release promotion activation value” came to 102.5%. For the same compound, at Cytochrome P450(2D6), the half-maximal inhibitory concentration (IC50) (commonly the concentration that gives 50% inhibition) was over 20 µM. Besides, on human TRPA1, the EC50 (commonly the midpoint of the concentration-response curve) was 3 µM.
In the case of `O=C(O)/C=C1/C(=O)N(CC2CCCCC2)c2ccccc21` [Example 15, (2E)-[1-(cyclohexylmethyl)-2-oxo-1,2-dihydro-3H-indol-3-ylidene]acetic acid], the melting point is 137 to 139 °C. Besides, in the series with RIN14B cells, the “5-HT release promotion activation value” amounted to 97.4%. At Cytochrome P450(2D6), this compound yielded an IC50 of over 20 µM. In addition, the 50% effective concentration (EC50) at human TRPA1 stood at 4.4 µM.
